The values below are quoted from earlier work in patent publication US12678479B2, “Pharmaceutical compositions comprising teixobactin” (priority 2018, dated 2026).

The data set concerns MRSA ATCC 33591. The conditions noted are these: comparison value.

Take `CN[C@H](CC(C)C)C(=O)N[C@H]1C(=O)N[C@@H](CC(N)=O)C(=O)N[C@H]2C(=O)N[C@H]3C(=O)N[C@H](C(=O)N[C@H](C(=O)O)c4cc(O)cc(O)c4-c4cc3ccc4O)[C@H](O[C@H]3C[C@](C)(N)[C@@H](O)[C@H](C)O3)c3ccc(c(Cl)c3)Oc3cc2cc(c3O[C@@H]2O[C@H](CO)[C@@H](O)[C@H](O)[C@H]2O[C@H]2C[C@](C)(NCc3ccc(-c4ccc(Cl)cc4)cc3)[C@@H](O)[C@H](C)O2)Oc2ccc(cc2Cl)[C@H]1O` [Orbactiv, oritavancin]: the effective dose is 4 to 5 mg/kg.
